# Earlier results in patent US20230104487A1, “11-(4-CHLOROPHENYL)-4-(2,3-DIHYDRO-1H-INDOLE-1-CARBONYL)-3,11-DIMETHYL-5,10,DIOXATRICYCLO[7.4.0.0,2,6,]TRIDECA-1,3,6,8-TETRAEN-13-ONE AND DERIVATIVES AS DESTABILIZER OF CRY1 FOR THE TREATMENT OF CIRCADIAN RHYTHM ASSOCIATED DISEASES AND DISORDERS” (KOC UNIVERSITESI, priority 2019, published 2023).
# Legend:
# REV-ERB = conditions: Solt et al., 2012; cited from earlier work
# gluconeogenesis = conditions: Hirota et al., 2012; cited from earlier work
# CRYs = conditions: Hirota et al., 2012; cited from earlier work
Compound,effect on REV-ERB's repressor function (REV-ERB),effect on gluconeogenesis (gluconeogenesis),effect on stability of the CRYs (CRYs)
CC(C)(C)OC(=O)CN(Cc1ccc(Cl)cc1)Cc1ccc([N+](=O)[O-])s1 [GSK4112],enhance REV-ERB's repressor function toward Bmal1 transcription,,
CS(=O)(=O)N(Cc1ccco1)CC(O)Cn1c2ccccc2c2ccccc21 (stereo not drawn) [KL001],,suppresses the gluconeogenesis,increases stability of the CRYs
